Measured values from patent US8138205B2, “Heteroarylalkoxy-substituted quinolone inhibitors of PDE4” (Kalypsys, Inc., priority 2006, dated 2012).

Experiments:
Solubility Protocol = type: physicochemical; settings: aqueous buffer, thermodynamic from solid; pH 7.4, 0.1 M sodium phosphate buffer
Experimental: About 5 mg of a compound was mixed with 500 μL of pH 7.4, 0.1 M sodium phosphate buffer. The mixture was adjusted to the original pH of 7.4 and then mixed overnight or longer via rotary mixing. The sample was checked for pH and then filtered through a 0.45 μm filter. If the pH drifted away, the sample was adjusted to its original pH and mixed for at least 15 minutes before filtration. The filtrate was analyzed using HPLC.

PDE4B = molecular target: T1, PDE4B (Homo sapiens, UniProt Q07343); assay: PDE/AK Biological Activity Assay (coupled PDE/adenylate kinase bioluminescent assay); type: biochemical; settings: catalytic domain of PDE4B, read-out: PDE4 Enzyme IC50
T1 construct: hex-histidine (His6) (N); made in house
T1 sequence (Q07343 330-659 limits assumed, species assumed): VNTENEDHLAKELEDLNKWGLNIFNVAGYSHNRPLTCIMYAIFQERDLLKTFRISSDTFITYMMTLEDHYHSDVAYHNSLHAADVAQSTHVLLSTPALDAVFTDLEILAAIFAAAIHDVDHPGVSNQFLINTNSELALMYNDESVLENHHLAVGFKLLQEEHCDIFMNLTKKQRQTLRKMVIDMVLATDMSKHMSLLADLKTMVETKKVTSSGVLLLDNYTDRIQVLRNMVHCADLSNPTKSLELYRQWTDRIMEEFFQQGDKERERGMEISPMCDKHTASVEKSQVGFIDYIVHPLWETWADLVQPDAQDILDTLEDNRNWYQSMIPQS
From the text: Phosphodiesterases regulate the activity of the second messenger cyclic adenosine monophosphate (cAMP) by hydrolyzing cAMP to adenosine monophosphate (AMP). We developed a coupled PDE/AK bioluminescent high-throughput assay to measure the activity of phosphodiesterases. In the PDE/AK assay, the AMP produced from the hydrolysis of cAMP by phosphodiesterase is converted to adenosine diphosphate (ADP) by the phosphotransferase activity of adenylate kinase (also known as ADK or myokinase). Adenylate kinase will catalyze the conversion of 1 mole of AMP and 1 mole of ATP into 2 moles of ADP. Thus the conversion of AMP to ADP will result in the subsequent loss of ATP. The decrease in ATP concentration can be monitored as light output using luciferase in a reaction that requires ATP to produce light. The PDE/AK assay uses luciferase, which catalyzes the production of light from ATP present in the reaction mix. The amount of emitted light is inversely proportional to the level of AMP present in the reaction. Test compounds are incubated with the phosphodiesterases and phosphodiesterase inhibitors will decrease the rate of cAMP hydrolysis and decrease the subsequent production of AMP. Thus phosphodiesterase inhibitors will decrease the conversion of ATP to ADP and result in the greatest emission of light.
Compounds may be screened for functional potency in in vitro biochemical assays for their ability to inhibit the activity of phosphodiesterase (PDE) enzymes. A coupled PDE/AK assay was utilized to measure the inhibitory activity of compounds on PDE isoforms. The catalytic domain of PDE4B was fused to an amino-terminus hex-histidine affinity tag and purified. PDE4B enzyme was incubated with compounds for 10 minutes. Cyclic AMP substrate, ATP and adenylate kinase were then added to the PDE enzyme mix and incubated for 45 minutes at room temperature. A commercial ATP detection assay, Perkin Elmer's easyLite ATP detection reagent, was then added to measure the relative amount of ATP present in the reaction. After 10 minute incubation, the luminescent signal was quantitated with either the Perkin Elmer Viewlux or Molecular Devices Acquest or Analyst. Roflumilast and Rolipram are the positive controls used in the assay.

Compound	solubility (Solubility Protocol) [µg/mL]	IC50 (PDE4B) [nM]
COc1ccc2c(Nc3c(C)cncc3C)cc(=O)[nH]c2c1OCC(C)C [Example 12, 4-(3,5-Dimethylpyridin-4-ylamino)-8-isobutoxy-7-methoxyquinolin-2(1H)-one]	≥ 1000	–
COc1ccc2c(Nc3c(Cl)cncc3Cl)cc(=O)[nH]c2c1OCCCCO [Example 41, 4-(3,5-dichloropyridin-4-ylamino)-8-(4-hydroxybutoxy)-7-methoxyquinolin-2(1H)-one]	≥ 1000	< 1000
COc1ccc2c(Nc3c(Cl)cncc3Cl)cc(=O)[nH]c2c1OCCCCCO [Example 42, 4-(3,5-dichloropyridin-4-ylamino)-8-(5-hydroxypentyloxy)-7-methoxyquinolin-2(1H)-one]	≥ 1000	< 1000
COc1ccc2c(Nc3c(C)cncc3C)cc(=O)[nH]c2c1OCCCCCN(C)C [Example 45, 8-(5-(dimethylamino)pentyloxy)-4-(3,5-dimethylpyridin-4-ylamino)-7-methoxyquinolin-2(1H)-one]	≥ 1000	< 1000
COc1ccc2c(Nc3c(Cl)cncc3Cl)cc(=O)[nH]c2c1OCCCCCN1CCN(C)CC1 [Example 47, 4-(3,5-dichloropyridin-4-ylamino)-7-methoxy-8-(5-(4-methylpiperazin-1-yl)pentyloxy)quinolin-2(1H)-one]	≥ 1000	< 1000
COc1ccc2c(Nc3c(Cl)cncc3Cl)cc(=O)[nH]c2c1OCCCCCN1CCOCC1 [Example 49, 4-(3,5-dichloropyridin-4-ylamino)-7-methoxy-8-(5-morpholinopentyloxy)quinolin-2(1H)-one]	≥ 1000	< 1000
COc1ccc2c(Nc3c(Cl)cncc3Cl)cc(=O)[nH]c2c1OCC(N)=O [Example 50, 2-(4-(3,5-dichloropyridin-4-ylamino)-7-methoxy-2-oxo-1,2-dihydroquinolin-8-yloxy)acetamide]	≥ 1000	< 1000
COc1ccc2c(Nc3c(Cl)cncc3Cl)cc(=O)[nH]c2c1OCCCC(=O)O [Example 51, 4-(4-(3,5-dichloropyridin-4-ylamino)-7-methoxy-2-oxo-1,2-dihydroquinolin-8-yloxy)butanoic acid]	≥ 1000	< 1000
COc1ccc2c(Nc3c(Cl)cncc3Cl)cc(=O)[nH]c2c1OCCCCCCCCC(=O)O [Example 55, 9-(4-(3,5-dichloropyridin-4-ylamino)-7-methoxy-2-oxo-1,2-dihydroquinolin-8-yloxy)nonanoic acid]	≥ 1000	< 1000
COc1ccc2c(Nc3c(Cl)cncc3Cl)cc(=O)[nH]c2c1OCCCn1ccnc1 [Example 62, 8-(3-(1H-imidazol-1-yl)propoxy)-4-(3,5-dichloropyridin-4-ylamino)-7-methoxyquinolin-2(1H)-one]	≥ 1000	< 1000
COc1ccc2c(Nc3c(Cl)cncc3Cl)cc(=O)[nH]c2c1OCCCCC(=O)N[C@@H](CO)C(=O)O [Example 64, (S)-2-(5-(4-(3,5-dichloropyridin-4-ylamino)-7-methoxy-2-oxo-1,2-dihydroquinolin-8-yloxy)pentanamido)-3-hydroxypropanoic acid]	≥ 1000	< 1000
COc1ccc2c(Nc3c(Cl)cncc3Cl)cc(=O)[nH]c2c1OCCCCC(=O)N[C@@H](CC(=O)O)C(=O)O [Example 66, (S)-2-(5-(4-(3,5-dichloropyridin-4-ylamino)-7-methoxy-2-oxo-1,2-dihydroquinolin-8-yloxy)pentanamido)succinic acid]	≥ 1000	< 1000
COc1ccc2c(Nc3c(Cl)cncc3Cl)cc(=O)[nH]c2c1OCCCc1nn[nH]n1 [Example 67, 8-(3-(2H-tetrazol-5-yl)propoxy)-4-(3,5-dichloropyridin-4-ylamino)-7-methoxyquinolin-2(1H)-one]	≥ 1000	< 1000
COc1ccc2c(Nc3c(Cl)cncc3Cl)cc(=O)[nH]c2c1OCCCCc1nn[nH]n1 [Example 68, 8-(4-(2H-tetrazol-5-yl)butoxy)-4-(3,5-dichloropyridin-4-ylamino)-7-methoxyquinolin-2(1H)-one]	≥ 1000	< 1000
COc1ccc2c(Nc3c(Cl)cncc3Cl)cc(=O)[nH]c2c1OCCCCC(=O)N[C@@H](Cc1c[nH]cn1)C(=O)O [Example 95, (S)-2-(5-(4-(3,5-dichloropyridin-4-ylamino)-7-methoxy-2-oxo-1,2-dihydroquinolin-8-yloxy)pentanamido)-3-(1H-imidazol-4-yl)propanoic acid]	–	< 1000
COc1ccc2c(Nc3c(Cl)cncc3Cl)cc(=O)[nH]c2c1OCCCOCCOCCOCCO [Example 96, 4-(3,5-dichloropyridin-4-ylamino)-8-(3-(2-(2-(2-hydroxyethoxy)ethoxy)ethoxy)propoxy)-7-methoxyquinolin-2(1H)-one]	–	< 1000
COCCOCCOCCOCCCOc1c(OC)ccc2c(Nc3c(Cl)cncc3Cl)cc(=O)[nH]c12 [Example 97, 8-(2,5,8,11-tetraoxatetradecan-14-yloxy)-4-(3,5-dichloropyridin-4-ylamino)-7-methoxyquinolin-2(1H)-one]	–	< 1000
COc1ccc2c(Nc3c(Cl)cncc3Cl)cc(=O)[nH]c2c1OCCCOCCOCCO [Example 98, 4-(3,5-dichloropyridin-4-ylamino)-8-(3-(2-(2-hydroxyethoxy)ethoxy)propoxy)-7-methoxyquinolin-2(1H)-one]	–	< 1000

Further lines, results first:

solubility (Solubility Protocol) [µg/mL]	IC50 (PDE4B) [nM]	Compound
≥ 1000	< 1000	COc1ccc2c(Nc3c(Cl)cncc3Cl)cc(=O)[nH]c2c1OCCCCCCN1CCCNCC1 [Example 25, 8-(6-(1,4-Diazepan-1-yl)hexyloxy)-4-(3,5-dichloropyridin-4-ylamino)-7-methoxyquinolin-2(1H)-one]
≥ 1000	< 1000	COc1ccc2c(Nc3c(Cl)cncc3Cl)cc(=O)[nH]c2c1OCCCCCCN1CCCN(C)CC1 [Example 26, 4-(3,5-Dichloropyridin-4-ylamino)-7-methoxy-8-(6-(4-methyl-1,4-diazepan-1-yl)hexyloxy)quinolin-2(1H)-one]
≥ 1000	< 1000	COc1ccc2c(Nc3c(Cl)cncc3Cl)cc(=O)[nH]c2c1OCCCCCCN(C)CCCN(C)C [Example 27, 4-(3,5-Dichloropyridin-4-ylamino)-8-(6-((3-(dimethylamino)propyl)(methyl)amino)hexyloxy)-7-methoxyquinolin-2(1H)-one]
≥ 1000	< 1000	COc1ccc2c(Nc3c(Cl)cncc3Cl)cc(=O)[nH]c2c1OCCCCCCN [Example 28, 8-(6-Aminohexyloxy)-4-(3,5-dichloropyridin-4-ylamino)-7-methoxyquinolin-2(1H)-one]
≥ 1000	< 1000	COc1ccc2c(Nc3c(Cl)cncc3Cl)cc(=O)[nH]c2c1OCCCCCCNCCO [Example 29, 4-(3,5-Dichloropyridin-4-ylamino)-8-(6-(2-hydroxyethylamino)hexyloxy)-7-methoxyquinolin-2(1H)-one]
≥ 1000	< 1000	COc1ccc2c(Nc3c(Cl)cncc3Cl)cc(=O)[nH]c2c1OCCCCCCN(C)CCO [Example 30, 4-(3,5-Dichloropyridin-4-ylamino)-8-(6-((2-hydroxyethyl)(methyl)amino)hexyloxy)-7-methoxyquinolin-2(1H)-one]
≥ 1000	< 1000	COc1ccc2c(Nc3c(Cl)cncc3Cl)cc(=O)[nH]c2c1OCCCCCCNCCCO [Example 32, 4-(3,5-Dichloropyridin-4-ylamino)-8-(6-(3-hydroxypropylamino)hexyloxy)-7-methoxyquinolin-2(1H)-one]
≥ 1000	< 1000	COc1ccc2c(Nc3c(Cl)cncc3Cl)cc(=O)[nH]c2c1OCCCCCCN(C)CCCO [Example 33, 4-(3,5-Dichloropyridin-4-ylamino)-8-(6-((3-hydroxypropyl)(methyl)amino)hexyloxy)-7-methoxyquinolin-2(1H)-one]
≥ 1000	< 1000	COc1ccc2c(Nc3c(C)cncc3C)cc(=O)[nH]c2c1OCCCCCCN1CCCCC1 [Example 36, 4-(3,5-Dimethylpyridin-4-ylamino)-7-methoxy-8-(6-(piperidin-1-yl)hexyloxy)quinolin-2(1H)-one]
≥ 1000	< 1000	COc1ccc2c(Nc3c(C)cncc3C)cc(=O)[nH]c2c1OCCCCCCN1CCCC1 [Example 37, 4-(3,5-Dimethylpyridin-4-ylamino)-7-methoxy-8-(6-(pyrrolidin-1-yl)hexyloxy)quinolin-2(1H)-one]
